Measurements published in US20170121344A1 (Siga Technologies, Inc., priority 2009, published 2017).
Counter-ions that a name gives are not always drawn. Like-named read-outs stand apart in the source and are kept apart here.

Test system: Dengue-2 (Strain New Guinea C)
Test: Viral yield assay against Dengue-2 in Vero cells
Type: cell-based, Dengue virus
In short: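 Infect Vero cells with virus (MOI 0.1), add compound or DMSO, incubate at 37° C, collect progeny at 48 hours post infection, then titrate on Vero cells to obtain EC50.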

[1] = Dengue virus, Vero cells, MOI 0.1, harvested 48 hours post infection, read-out: Activity (EC50 class) against Dengue-2 Virus in Vero cells
[2] = Dengue virus, Vero, 48 h, read-out: Activity (EC50 class) against Dengue-2 Virus in Vero cells
[3] = Dengue virus, DENV2, viral yield assay, Vero cells, MOI 0.1, 48 hours post infection, read-out: Activity (EC50 in μM) DENV-2

| Compound | EC50 [1] | EC50 [3] | also measured |
| --- | --- | --- | --- |
| COc1ccc(NC(=O)c2sc3nc(-c4ccccc4)cc(C(F)(F)F)c3c2N)cc1 [Compound 119, 3-Amino-6-phenyl-4-trifluoromethyl-thieno[2,3-b]pyridine-2-carboxylic acid (4-methoxy-phenyl)-amide] | > 25 µM |  |  |
| Cc1cc(C)c2c(N)c(C(=O)Nc3cc(C(F)(F)F)ccc3Cl)sc2n1 [Compound 186, 3-Amino-4,6-dimethyl-thieno[2,3-b]pyridine-2-carboxylic acid (2-chloro-5-trifluoromethyl-phenyl)-amide] | > 25 µM |  |  |
| COC(=O)c1ccccc1NC(=O)c1sc2nc(N)c(C#N)cc2c1N [Compound 133, 2-[(3,6-Diamino-5-cyano-thieno[2,3-b]pyridine-2-carbonyl)-amino]-benzoic acid methyl ester] | > 25 µM |  |  |
| N-(1-adamantyl)-3-amino-6-(2-thienyl) thieno[2,3-b]pyridine-2-carboxamide [Compound 426] |  |  | EC50 (viral yield assay, Vero cells, MOI 0.1, 48 hours post infection, read-out: Activity (EC50 in μM) DENV-2): < 5 µM |
| Nc1c(C(=O)Nc2cccc(C(F)(F)F)c2)sc2nc3c(cc12)C(=O)CCC3 [Compound 12, 3-Amino-5-oxo-5,6,7,8-tetrahydro-thieno[2,3-b]quinoline-2-carboxylic acid (3-trifluoromethyl-phenyl)-amide] |  |  | EC50 [2]: < 5 µM |
| Cc1ccccc1NC(=O)c1sc2nc(-c3ccc(F)cc3)ccc2c1N [Compound 610, 3-amino-6-(4-fluorophenyl)-N-(o-tolyl) thieno[2,3-b]pyridine-2-carboxamide] |  | < 5 µM |  |
| Nc1c(C(=O)Nc2ccc(Br)cc2)sc2nc(-c3ccncc3)ccc12 [Compound 416, 3-amino-N-(4-bromophenyl)-6-(4-pyridyl)thieno[2,3-b]pyridine-2-carboxamide] |  | < 5 µM |  |
| CN1CCc2nc3sc(C(=O)Nc4c(Cl)cccc4Cl)c(N)c3cc2C1 [Compound 109, 3-Amino-6-methyl-5,6,7,8-tetrahydro-thieno[2,3-b][1,6]naphthyridine-2-carboxylic acid (2,6-dichloro-phenyl)-amide] | 5 to 25 µM |  |  |
| CC1(C)CC(=O)c2cc3c(N)c(C(=O)Nc4ccccc4[N+](=O)[O-])sc3nc2C1 [Compound 222, 3-Amino-7,7-dimethyl-5-oxo-5,6,7,8-tetrahydro-thieno[2,3-b]quinoline-2-carboxylic acid (2-nitro-phenyl)-amide] | > 25 µM |  |  |
| CC1(C)Cc2c(c(N3CCOCC3)nc3sc4c(=O)n(-c5ccc(Cl)c(Cl)c5)cnc4c23)CO1 [Compound 245, 9-(3,4-Dichloro-phenyl)-2,2-dimethyl-5-morpholin-4-yl-1,4-dihydro-2H,9H-3-oxa-7-thia-6,9,11-triaza-benzo[c]fluoren-8-one] | > 25 µM |  |  |
| COc1cccc(-c2ccc3c(N)c(C(=O)Nc4cc(F)ccc4F)sc3n2)c1 [Compound 516, 3-amino-N-(2,5-difluorophenyl)-6-(3-methoxyphenyl)thieno[2,3-b]pyridine-2-carboxamide] |  | < 5 µM |  |
| Cc1cc(C)c2c(N)c(C(=O)Nc3ccc4ccccc4c3)sc2n1 [Compound 83, 3-Amino-4,6-dimethyl-thieno[2,3-b]pyridine-2-carboxylic acid naphthalen-2-ylamide] | 5 to 25 µM |  |  |
| Cc1ccc(NC(=O)c2sc3nc(-c4ccc5c(c4)OCO5)ccc3c2N)cc1C [Compound 528, 3-amino-6-(1,3-benzodioxol-5-yl)-N-(3,4-dimethylphenyl)thieno[2,3-b]pyridine-2-carboxamide] |  | < 5 µM |  |
| Nc1c(C(=O)Nc2cccc(Br)c2)sc2nc(-c3ccncc3)ccc12 [Compound 481, 3-amino-N-(3-bromophenyl)-6-(4-pyridyl)thieno[2,3-b]pyridine-2-carboxamide] |  | 5 to 25 µM |  |
| Cc1sc(NC(=O)c2sc3nc4c(cc3c2N)CN(C)CC4)c(C#N)c1C [Compound 114, 3-Amino-6-methyl-5,6,7,8-tetrahydro-thieno[2,3-b][1,6]naphthyridine-2-carboxylic acid (3-cyano-4,5-dimethyl-thiophen-2-yl)-amide] | 5 to 25 µM |  |  |
| NC(=O)c1sc2nc(C3CC3)cc(-c3ccccc3)c2c1N [Compound 8, 3-Amino-6-cyclopropyl-4-phenyl-thieno[2,3-b]pyridine-2-carboxylic acid amide] | < 5 µM |  |  |
| Cc1ccc(NC(=S)NNC(=O)c2sc3nc(-c4cccs4)cc(C(F)(F)F)c3c2C)cc1 [Compound 410, 1-[[3-methyl-6-(2-thienyl)-4-(trifluoromethyl)thieno[2,3-b]pyridine-2-carbonyl]amino]-3-(p-tolyl)thiourea] |  | < 5 µM |  |
| Cc1cc(C)c2c(C)c(C(=O)Nc3ccccc3O)sc2n1 [Compound 403, N-(2-hydroxyphenyl)-3,4,6-trimethyl-thieno[2,3-b]pyridine-2-carboxamide] |  | < 5 µM |  |
| NC(=O)c1sc2nc3c(c(-c4ccco4)c2c1N)CCCC3 [Compound 11, 3-Amino-4-furan-2-yl-5,6,7,8-tetrahydro-thieno[2,3-b]quinoline-2-carboxylic acid amide] | < 5 µM |  |  |

| Compound | EC50 [1] | EC50 [3] | also measured |
| --- | --- | --- | --- |
| CC(=O)c1cnc2sc(C(=O)Nc3cccc(F)c3)c(C)c2c1 [Compound 391, 5-acetyl-N-(3-fluorophenyl)-3-methyl-thieno[2,3-b]pyridine-2-carboxamide] |  | < 5 µM |  |
| NC(=O)c1sc2nc3c(cc2c1N)CCCCC3 [Compound 82, 3-Amino-6,7,8,9-tetrahydro-5H-1-thia-10-aza-cyclohepta[f]indene-2-carboxylic acid amide] | 5 to 25 µM |  |  |
| Nc1c(C(=O)Nc2ccccc2Br)sc2nc(-c3ccncc3)ccc12 [Compound 466, 3-amino-N-(2-bromophenyl)-6-(4-pyridyl)thieno[2,3-b]pyridine-2-carboxamide] |  | 5 to 25 µM |  |
| COCc1cc(C)nc2sc3c(=O)n(-c4ccc(C(C)=O)cc4)nnc3c12 [Compound 156, 3-(4-Acetyl-phenyl)-9-methoxymethyl-7-methyl-3H-pyrido[3′,2′:4,5]thieno[3,2-d][1,2,3]triazin-4-one] | > 25 µM |  |  |
| CN1CCc2nc3sc(C(=O)Nc4ccccc4Cl)c(N)c3cc2C1 [Compound 19, 3-Amino-6-methyl-5,6,7,8-tetrahydro-thieno[2,3-b][1,6]naphthyridine-2-carboxylic acid (2-chloro-phenyl)-amide] | < 5 µM |  |  |
| CN1CCc2nc3sc(C(=O)NCc4ccccc4)c(N)c3cc2C1 [Compound 106, 3-Amino-6-methyl-5,6,7,8-tetrahydro-thieno[2,3-b][1,6]naphthyridine-2-carboxylic acid benzylamide] |  |  | EC50 [2]: 5 to 25 µM |
| COc1ccc(-c2c(C#N)c(N)nc3sc(C(N)=O)c(N)c23)cc1OC [Compound 170, 3,6-Diamino-5-cyano-4-(3,4-dimethoxy-phenyl)-thieno[2,3-b]pyridine-2-carboxylic acid amide] |  |  | EC50 [2]: > 25 µM |
| Nc1c(C(=O)Nc2nccs2)sc2nc3c(c(-c4cccs4)c12)CCCCC3 [Compound 223, 3-Amino-4-thiophen-2-yl-6,7,8,9-tetrahydro-5H-1-thia-10-aza-cyclohepta[f]indene-2-carboxylic acid thiazol-2-ylamide] |  |  | EC50 [2]: > 25 µM |
| COc1ccc(Cl)cc1NC(=O)c1sc2nc3c(cc2c1N)CN(C)CC3 [Compound 37, 3-Amino-6-methyl-5,6,7,8-tetrahydro-thieno[2,3-b][1,6]naphthyridine-2-carboxylic acid (5-chloro-2-methoxy-phenyl)-amide] | < 5 µM |  |  |
| Nc1c(C(=O)Nc2nnc(-c3ccccc3)s2)sc2nc3c(cc12)CNCCC3 [Compound 52, 3-Amino-6,7,8,9-tetrahydro-5H-1-thia-6,10-diaza-cyclohepta[f]indene-2-carboxylic acid (5-phenyl-[1,3,4]thiadiazol-2-yl)-amide hydrochloride] | < 5 µM |  |  |
| CN1CCc2nc3sc(C(=O)NCc4ccccc4Cl)c(N)c3cc2C1 [Compound 113, 3-Amino-6-methyl-5,6,7,8-tetrahydro-thieno[2,3-b][1,6]naphthyridine-2-carboxylic acid 2-chloro-benzylamide] | 5 to 25 µM |  |  |
| COc1cccc(-c2ccc3c(N)c(C(=O)Nc4cc(C(F)(F)F)ccc4OC)sc3n2)c1 [Compound 558, 3-amino-6-(3-methoxyphenyl)-N-[2-methoxy-5-(trifluoromethyl)phenyl] thieno[2,3-b]pyridine-2-carboxamide] |  | < 5 µM |  |
| COc1ccc(NC(=O)c2sc3nc(-c4ccc(Cl)cc4)ccc3c2N)cc1 [Compound 527, 3-amino-6-(4-chlorophenyl)-N-(4-methoxyphenyl)thieno[2,3-b]pyridine-2-carboxamide] |  | < 5 µM |  |
| O=C(Nc1cccc(Cl)c1)c1sc2ncccc2c1OCc1ccc(Cl)c(Cl)c1 [Compound 380, N-(3-chlorophenyl)-3-[(3,4-dichlorophenyl)methoxy]thieno[2,3-b] pyridine-2-carboxamide] |  | < 5 µM |  |
| CC1(C)Cc2c(c(N3CCOCC3)nc3sc4c(=O)n(-c5ccccc5)cnc4c23)CO1 [Compound 233, 2,2-Dimethyl-5-morpholin-4-yl-9-phenyl-1,4-dihydro-2H,9H-3-oxa-7-thia-6,9,11-triaza-benzo[c]fluoren-8-one] | > 25 µM |  |  |
| COc1ccc(NC(=O)c2sc3nc(-c4ccc(F)cc4)ccc3c2N)c(C)c1 [Compound 624, 3-amio-6-(4-fluorophenyl)-N-(4-methoxy-2-methyl-phenyl)thieno[2,3-b] pyridine-2-carboxamide] |  | < 5 µM |  |
| CCc1ccccc1NC(=O)c1sc2nc3c(c(-c4ccco4)c2c1N)CCC3 [Compound 219, 3-Amino-4-furan-2-yl-6,7-dihydro-5H-cyclopenta[b]thieno[3,2-e]pyridine-2-carboxylic acid (2-ethyl-phenyl)-amide] | > 25 µM |  |  |
| CC1(C)CC(=O)c2cc3c(N)c(C(=O)Nc4ccc([N+](=O)[O-])cc4)sc3nc2C1 [Compound 214, 3-Amino-7,7-dimethyl-5-oxo-5,6,7,8-tetrahydro-thieno[2,3-b]quinoline-2-carboxylic acid (4-nitro-phenyl)-amide] | > 25 µM |  |  |
